Literature values in patent EP4759315A1, “DRUG PREPARED FROM ORGANIC GERMANIUM COMPOUND AND GLUCOSAMINE COMPOUND, AND USE THEREOF” (Eion International Ltd., priority 2023, dated 2025).

Legend:
[1] = in vivo

SMILES: O=C(O)C[CH2][Ge](=[O])[O][Ge](=[O])[CH2]CC(=O)O [Ge-132, bis(carboxyethyl)germanium sesquioxide]
- No-Observable-Adverse-Effect Level (NOAEL) [1]: 2000 mg/kg body weight/day
- pH of the solution (at the concentration of 1.28 g/100 ml in water): 3.06-3.12
- solubility in water (water): 1.28 g/100 ml
